Columns and labels:
CDK1/Cyclin B1, GST-tag = target: T1, CDK1/Cyclin B1, GST-tag (Homo sapiens, UniProt P06493); test: CDK1/Cyclin B1 biochemical phosphorylation assay (Caliper mobility shift); conditions: apparent IC50; 1.0 mM ATP or ATP Km; 1.5 nM enzyme; 25° C.
T1 construct: GST
Method in brief: (§1)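 7.5 µM 5-FAM-QSPKKG-CONH2 peptide phosphorylated by CDK2/Cyclin E (1.25 nM) or GST-CDK1/Cyclin B1 (1.5 nM) at 1.0 mM ATP or ATP Km, in HEPES pH 7.5, MgCl2, Brij-35, DTT, 1% DMSO, 25 °C to 10–20% conversion. EDTA stop; Caliper mobility-shift readout; apparent IC50 from percent activity vs log concentration.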

CDK2/Cyclin E = CDK2/Cyclin E (Homo sapiens, UniProt P24941); test: CDK2/Cyclin E biochemical phosphorylation assay (Caliper mobility shift); conditions: apparent IC50; 1.0 mM ATP or ATP Km; 1.25 nM enzyme; 25° C.; read-out: CDK2/cyclin E1 IC50
Method in brief: as §1

T1 sequence (P06493 whole entry): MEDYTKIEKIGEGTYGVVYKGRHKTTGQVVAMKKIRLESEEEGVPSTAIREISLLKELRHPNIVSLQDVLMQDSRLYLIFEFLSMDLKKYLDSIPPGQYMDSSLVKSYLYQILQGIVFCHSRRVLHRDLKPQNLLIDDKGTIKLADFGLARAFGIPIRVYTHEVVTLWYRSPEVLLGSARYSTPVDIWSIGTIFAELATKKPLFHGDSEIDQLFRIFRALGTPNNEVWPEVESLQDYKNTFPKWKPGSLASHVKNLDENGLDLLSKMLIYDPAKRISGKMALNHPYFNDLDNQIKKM
T1 sequence (P14635 whole entry partner): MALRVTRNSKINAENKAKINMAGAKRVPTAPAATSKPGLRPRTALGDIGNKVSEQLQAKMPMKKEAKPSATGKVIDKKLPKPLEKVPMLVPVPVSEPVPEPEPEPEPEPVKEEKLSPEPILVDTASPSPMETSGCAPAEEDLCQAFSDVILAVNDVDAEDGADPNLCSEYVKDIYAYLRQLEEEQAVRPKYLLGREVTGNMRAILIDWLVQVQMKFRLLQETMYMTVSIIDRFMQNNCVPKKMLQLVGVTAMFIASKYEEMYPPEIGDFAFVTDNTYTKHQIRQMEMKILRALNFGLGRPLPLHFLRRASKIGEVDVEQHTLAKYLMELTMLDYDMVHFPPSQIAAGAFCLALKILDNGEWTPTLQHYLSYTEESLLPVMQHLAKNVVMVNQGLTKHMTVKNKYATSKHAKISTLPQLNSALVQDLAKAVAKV

| Compound | IC50 (CDK1/Cyclin B1, GST-tag) [nM] | IC50 (CDK2/Cyclin E) [nM] |
| --- | --- | --- |
| FC(F)Oc1cc(Nc2cnc3cnn([C@@H](c4cccnc4)C4CC4)c3n2)n[nH]1 (single isomer, unassigned) [Example 147, (R)-1-(cyclopropyl(pyridin-3-yl)methyl)-N-(5-(difluoromethoxy)-1H-pyrazol-3-yl)-1H-pyrazolo[3,4-b]pyrazin-6-amine or (S)-1-(cyclopropyl(pyridin-3-yl)methyl)-N-(5-(difluoromethoxy)-1H-pyrazol-3-yl)-1H-pyrazolo[3,4-b]pyrazin-6-amine] | ≥ 500 | ≤ 10 |
| FC(F)Oc1cc(Nc2cnc3cnn(CC4(F)CCOCC4)c3n2)n[nH]1 [Example 112, N-(5-(difluoromethoxy)-1H-pyrazol-3-yl)-1-((4-fluorotetrahydro-2H-pyran-4-yl)methyl)-1H-pyrazolo[3,4-b]pyrazin-6-amine] | ≥ 500 | 20 to 30 |
| O[C@H]1CC[C@H](n2ncc3ncc(Nc4cc(OC(F)F)[nH]n4)nc32)CC1 [Example 3, (1r,4r)-4-(6-((5-(difluoromethoxy)-1H-pyrazol-3-yl)amino)-1H-pyrazolo[3,4-b]pyrazin-1-yl)cyclohexan-1-ol] | 100 to 500 | ≤ 10 |
| O[C@H]1CC[C@@H](n2ncc3ncc(Nc4cc(OC(F)F)[nH]n4)nc32)C1 (single isomer, unassigned) [Example 210] | ≥ 500 | > 100 |
| FC(F)Oc1cc(Nc2cnc3cnn(Cc4ccccc4)c3n2)n[nH]1 [Example 36, 1-benzyl-N-(5-(difluoromethoxy)-1H-pyrazol-3-yl)-1H-pyrazolo[3,4-b]pyrazin-6-amine] | ≥ 500 | 20 to 30 |
| N#C[C@H]1C[C@@H]1Cn1ncc2ncc(Nc3cc(OC(F)F)[nH]n3)nc21 (single isomer, unassigned) [Example 27, (1S,2S)-2-((6-((5-(difluoromethoxy)-1H-pyrazol-3-yl)amino)-1H-pyrazolo[3,4-b]pyrazin-1-yl)methyl)cyclopropane-1-carbonitrile or (1R,2R)-2-((6-((5-(difluoromethoxy)-1H-pyrazol-3-yl)amino)-1H-pyrazolo[3,4-b]pyrazin-1-yl)methyl)cyclopropane-1-carbonitrile] | 100 to 500 | ≤ 10 |
| FC(F)Oc1cc(Nc2cnc3cnn(C4CCOCC4)c3n2)n[nH]1 [Example 83, N-(5-(difluoromethoxy)-1H-pyrazol-3-yl)-1-(tetrahydro-2H-pyran-4-yl)-1H-pyrazolo[3,4-b]pyrazin-6-amine] | ≥ 500 | ≤ 10 |
| C[C@H](C1CC1)n1ncc2ncc(Nc3cc(OC(F)F)[nH]n3)nc21 [Example 55, (R)-1-(1-cyclopropylethyl)-N-(5-(difluoromethoxy)-1H-pyrazol-3-yl)-1H-pyrazolo[3,4-b]pyrazin-6-amine] | ≥ 500 | ≤ 10 |
| CC[C@@H](c1cccnc1)n1ncc2ncc(Nc3cc(OC(F)F)[nH]n3)nc21 [Example 94, (S)-N-(5-(difluoromethoxy)-1H-pyrazol-3-yl)-1-(1-(pyridin-3-yl)propyl)-1H-pyrazolo[3,4-b]pyrazin-6-amine] | ≥ 500 | ≤ 10 |
| FC(F)Oc1cc(Nc2cnc3cnn(Cc4cncs4)c3n2)n[nH]1 [Example 53, N-(5-(difluoromethoxy)-1H-pyrazol-3-yl)-1-(thiazol-5-ylmethyl)-1H-pyrazolo[3,4-b]pyrazin-6-amine] | ≥ 500 | ≤ 10 |
| C[C@H](c1cccnc1)n1ncc2ncc(Nc3cc(OC(F)F)[nH]n3)nc21 [Example 91, (R)-N-(5-(difluoromethoxy)-1H-pyrazol-3-yl)-1-(1-(pyridin-3-yl)ethyl)-1H-pyrazolo[3,4-b]pyrazin-6-amine] | ≥ 500 | 20 to 30 |
| COc1cc(Nc2cnc3cnn(C[C@@H]4CCCOC4)c3n2)n[nH]1 [Example 139, (S)-N-(5-methoxy-1H-pyrazol-3-yl)-1-((tetrahydro-2H-pyran-3-yl)methyl)-1H-pyrazolo[3,4-b]pyrazin-6-amine] | ≥ 500 | 10 to 20 |
| CC1(Cn2ncc3ncc(Nc4cc(OC(F)F)[nH]n4)nc32)CCOCC1 [Example 110, N-(5-(difluoromethoxy)-1H-pyrazol-3-yl)-1-((4-methyltetrahydro-2H-pyran-4-yl)methyl)-1H-pyrazolo[3,4-b]pyrazin-6-amine] | 100 to 500 | ≤ 10 |

Source: patent US11970498B2, “CDK2 inhibitors” (BLUEPRINT MEDICINES CORPORATION, priority 2021, dated 2024)
